The GI50 is the concentration that inhibits growth by half. A high value points to less potent growth inhibition.

SMILES strings stand for the structures.

This test deals with EGFR (Human), P00533 [T790M/L858R]. The note with it: nci-h1975.
Sequence of EGFR (Human), P00533 [T790M/L858R] (P00533 whole entry T790M/L858R, looked up): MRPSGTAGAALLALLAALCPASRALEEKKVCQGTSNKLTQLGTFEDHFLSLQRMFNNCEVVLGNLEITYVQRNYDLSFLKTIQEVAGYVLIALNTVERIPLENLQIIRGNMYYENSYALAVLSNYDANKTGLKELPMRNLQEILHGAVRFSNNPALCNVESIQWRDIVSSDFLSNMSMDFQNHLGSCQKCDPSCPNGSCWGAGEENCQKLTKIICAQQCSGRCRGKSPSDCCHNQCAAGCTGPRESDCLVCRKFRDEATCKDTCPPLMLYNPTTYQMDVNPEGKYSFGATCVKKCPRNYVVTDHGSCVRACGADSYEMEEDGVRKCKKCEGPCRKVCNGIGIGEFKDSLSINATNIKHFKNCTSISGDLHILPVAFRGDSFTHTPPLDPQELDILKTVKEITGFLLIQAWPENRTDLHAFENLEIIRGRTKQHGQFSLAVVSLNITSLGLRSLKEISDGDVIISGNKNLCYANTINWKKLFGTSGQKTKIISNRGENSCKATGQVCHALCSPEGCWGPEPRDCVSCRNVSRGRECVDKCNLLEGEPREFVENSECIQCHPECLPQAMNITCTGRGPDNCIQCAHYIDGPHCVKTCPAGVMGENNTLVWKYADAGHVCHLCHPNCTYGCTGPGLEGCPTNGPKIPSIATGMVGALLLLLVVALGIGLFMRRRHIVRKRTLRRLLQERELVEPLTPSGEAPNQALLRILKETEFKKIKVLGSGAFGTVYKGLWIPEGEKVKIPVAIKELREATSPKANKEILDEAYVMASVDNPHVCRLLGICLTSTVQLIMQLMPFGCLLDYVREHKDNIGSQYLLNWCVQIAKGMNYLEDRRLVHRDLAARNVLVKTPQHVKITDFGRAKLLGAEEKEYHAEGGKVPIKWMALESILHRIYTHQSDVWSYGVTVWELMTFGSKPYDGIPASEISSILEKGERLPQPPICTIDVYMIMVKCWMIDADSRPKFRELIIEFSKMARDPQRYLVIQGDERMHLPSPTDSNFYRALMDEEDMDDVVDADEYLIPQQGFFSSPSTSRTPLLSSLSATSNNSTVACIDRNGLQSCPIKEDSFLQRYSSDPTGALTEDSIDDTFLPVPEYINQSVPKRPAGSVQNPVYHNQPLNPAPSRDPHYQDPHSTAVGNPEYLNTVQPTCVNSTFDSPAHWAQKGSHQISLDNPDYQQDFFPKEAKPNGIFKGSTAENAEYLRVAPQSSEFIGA
In turn, `C=CC(=O)Nc1cccc(Oc2nc(Nc3ccc(S(C)(=O)=O)cc3)nc3ccsc23)c1` yielded a GI50 not above 50 nM. The value for `C=CC(=O)Nc1cccc(Nc2nc(Nc3ccc(N4CCN(CC)CC4)cc3)nc3ccsc23)c1` was not above 50 nM; that for `C=CC(=O)Nc1cccc(Oc2nc(Nc3ccc(CCS(C)(=O)=O)cc3)nc3ccsc23)c1` was not above 50 nM.

As for `C=CC(=O)Nc1cccc(Oc2nc(Nc3ccc(-n4ccnc4)cc3)nc3ccsc23)c1`, the concentration for 50% growth inhibition (GI50) is not above 50 nM.

The compound `C=CC(=O)Nc1cccc(Oc2nc(Nc3ccc(N4CCS(=O)(=O)CC4)cc3)nc3ccsc23)c1` displayed a GI50 not above 50 nM. The figure for `C=CC(=O)Nc1cccc(Oc2nc(Nc3ccc(N4CCN(C)CC4)cc3)nc3ccsc23)c1` is not above 50 nM. The figure for `C=CC(=O)Nc1cccc(Oc2nc(Nc3ccc(CN4CCC4)cc3)nc3ccsc23)c1` is not above 50 nM; for `C=CC(=O)Nc1cccc(Oc2nc(Nc3ccc(C4CCN(C)CC4)cc3OC)nc3ccsc23)c1` it is not above 50 nM; for `C=CC(=O)Nc1cccc(Oc2nc(Nc3ccc4c(c3)CCCC(=O)N4C)nc3ccsc23)c1` it is 50 to 100 nM. On to `C=CC(=O)Nc1cccc(Oc2nc(Nc3ccc(N4CCC(C(=O)N(C)C)CC4)cc3)nc3ccsc23)c1`, for which the concentration for 50% growth inhibition (GI50) is not above 50 nM. The figure for `C=CC(=O)Nc1cccc(Oc2nc(Nc3ccc(C(=O)N4CCN(S(=O)(=O)CC)CC4)c(Cl)c3)nc3ccsc23)c1` is 50 to 100 nM; for `C=CC(=O)Nc1cccc(Oc2nc(Nc3ccc(CN4CCCC4)cc3)nc3ccsc23)c1` it is not above 50 nM. The compound `C=CC(=O)Nc1cccc(Oc2nc(Nc3ccc4c(c3)OCCO4)nc3ccsc23)c1` came in with a concentration for 50% growth inhibition (GI50) not above 50 nM. The figure for `C=CC(=O)Nc1cccc(Oc2nc(Nc3ccc(C4(N)CC4)cc3)nc3ccsc23)c1` is not above 50 nM; for `C=CC(=O)Nc1cccc(Oc2nc(Nc3ccc(N4CCN(S(=O)(=O)CC)CC4)c(F)c3)nc3ccsc23)c1` it is not above 50 nM; for `C=CC(=O)Nc1cccc(Oc2nc(Nc3ccc(C(=O)NCCN4CCCC4)cc3OC)nc3ccsc23)c1` it is 50 to 100 nM. As to `C=CC(=O)Nc1cccc(Oc2nc(Nc3ccc(CCN(C)C)cc3)nc3ccsc23)c1`, the GI50 was not above 50 nM. The value for `C=CC(=O)Nc1cccc(Oc2nc(Nc3ccc(N4CCN(CCOC)CC4)cc3)nc3ccsc23)c1` was not above 50 nM. The figure for `C=CC(=O)Nc1cccc(Oc2nc(Nc3ccc(N4CCNCC4)c(Cl)c3)nc3ccsc23)c1` is not above 50 nM; for `C=CC(=O)Nc1cccc(Oc2nc(Nc3ccc(CN4CCC(N(C)C)CC4)cc3)nc3ccsc23)c1` it is not above 50 nM; for `C=CC(=O)Nc1cccc(Nc2nc(Nc3ccc(CN(C)C)cc3)nc3ccsc23)c1` it is not above 50 nM.

In turn, `C=CC(=O)Nc1cccc(Oc2nc(Nc3ccc(CCN4CCCCC4)cc3)nc3ccsc23)c1` had a concentration for 50% growth inhibition (GI50) not above 50 nM. The value for `C=CC(=O)Nc1cccc(Oc2nc(Nc3ccc(C(=O)NC4CCN(C)CC4)c(OC)c3)nc3ccsc23)c1` was 50 to 100 nM; that for `C=CC(=O)Nc1cccc(Oc2nc(Nc3ccc(OCCN4CCN(C)CC4)c(F)c3)nc3ccsc23)c1` was not above 50 nM.

Regarding `C=CC(=O)Nc1cccc(Oc2nc(Nc3ccc(N4CCN(CCO)CC4)cn3)nc3ccsc23)c1`, the 50% growth inhibitory concentration (GI50) fell in the range of 50 to 100 nM. The figure for `C=CC(=O)Nc1cccc(Oc2nc(Nc3ccc(N4CCSCC4)cc3)nc3ccsc23)c1` is not above 50 nM; for `C=CC(=O)Nc1cccc(Oc2nc(Nc3ccc(CN(CC)CC)cc3)nc3ccsc23)c1` it is not above 50 nM; for `C=CC(=O)Nc1cccc(Oc2nc(Nc3ccc(C(=O)N(C)C)c(Cl)c3)nc3ccsc23)c1` it is not above 50 nM. The figure for `C=CC(=O)Nc1cccc(Oc2nc(Nc3ccc(NC4CCN(C(C)C)CC4)c(F)c3)nc3ccsc23)c1` is not above 50 nM; for `C=CC(=O)Nc1cccc(Oc2nc(Nc3ccc(NC(=O)N4CCN(C)CC4)cc3)nc3ccsc23)c1` it is not above 50 nM. The value for `C=CC(=O)Nc1cccc(Oc2nc(Nc3ccc(S(=O)(=O)NCCN(C)C)cc3)nc3ccsc23)c1` was not above 50 nM; that for `C=CC(=O)Nc1cccc(Oc2nc(Nc3ccc(N4CCN(CC(F)(F)F)CC4)cc3)nc3ccsc23)c1` was not above 50 nM; that for `C=CC(=O)Nc1cccc(Oc2nc(Nc3ccc4c(c3)CCN4C(=O)CN(C)C)nc3ccsc23)c1` was not above 50 nM.

In turn, `C=CC(=O)Nc1cccc(Oc2nc(Nc3ccc(OCCN4CCOCC4)cc3)nc3ccsc23)c1` yielded a GI50 not above 50 nM. The figure for `C=CC(=O)Nc1cccc(Oc2nc(Nc3ccc(N4CCN(C(=O)CN(C)C)CC4)c(F)c3)nc3ccsc23)c1` is not above 50 nM; for `C=CC(=O)Nc1cccc(Oc2nc(Nc3ccc(CN4CCN(C)CC4)cc3)nc3ccsc23)c1` it is not above 50 nM.

With `C=CC(=O)Nc1cccc(Sc2nc(Nc3ccc(N4CCN(C)CC4)cc3)nc3ccsc23)c1`, the GI50 is not above 50 nM. The value for `C=CC(=O)Nc1cccc(Oc2nc(Nc3ccc(N4CCN(C)CC4)c(OC)c3)nc3ccoc23)c1` was not above 50 nM; that for `C=CC(=O)Nc1cccc(Oc2nc(Nc3ccc(C(C)N4CCN(CC)CC4)cc3)nc3ccsc23)c1` (stereo unspecified) was not above 50 nM. The value for `C=CC(=O)Nc1ccc(F)c(Nc2nc(Nc3ccc(N4CCN(C)CC4)c(F)c3)nc3ccsc23)c1` was not above 50 nM; that for `C=CC(=O)Nc1cccc(Oc2nc(Nc3ccc(CN4CCN(C5CCN(C)CC5)CC4)c(Cl)c3)nc3ccsc23)c1` was not above 50 nM. The figure for `C=CC(=O)Nc1cccc(Oc2nc(Nc3ccc(OC4CCN(C)CC4)c(F)c3)nc3ccsc23)c1` is not above 50 nM; for `C=CC(=O)Nc1cccc(Oc2nc(Nc3ccc4c(c3)NCCCO4)nc3ccsc23)c1` it is not above 50 nM.

With `C=CC(=O)Nc1cccc(Oc2nc(Nc3ccc(C(=O)N4CCN(CC)CC4)c(Cl)c3)nc3ccsc23)c1`, the GI50 was not above 50 nM. For the compound `C=CC(=O)Nc1cccc(Oc2nc(Nc3ccc(N4CC[S+]([O-])CC4)cc3)nc3ccsc23)c1`, the concentration for 50% growth inhibition (GI50) was not above 50 nM. Compound `C=CC(=O)Nc1cccc(Oc2nc(Nc3ccc(CN4CCCCC4)cc3)nc3ccsc23)c1` came in with a 50% growth inhibitory concentration (GI50) not above 50 nM. The value for `C=CC(=O)Nc1ccc(F)c(Nc2nc(Nc3ccc(N4CCN(C)CC4)cc3)nc3ccsc23)c1` was 50 to 100 nM. The figure for `C=CC(=O)Nc1cccc(Oc2nc(Nc3ccc(N4CCN(S(C)(=O)=O)CC4)c(F)c3)nc3ccsc23)c1` is not above 50 nM; for `C=CC(=O)Nc1cccc(Oc2nc(Nc3ccc(CN(C)C)cc3C)nc3ccsc23)c1` it is not above 50 nM. The value for `C=CC(=O)Nc1cccc(Oc2nc(Nc3ccc(C4CCCN(C)C4)cc3)nc3ccsc23)c1` (stereo unspecified) was not above 50 nM.

`C=CC(=O)Nc1cccc(Oc2nc(Nc3ccc(NC4CCN(C(C)C)CC4)nc3)nc3ccsc23)c1` displayed a GI50 of 50 to 100 nM. The value for `C=CC(=O)Nc1cccc(Oc2nc(Nc3ccc(CN4CCN(CC)CC4)cc3)nc3ccsc23)c1` was not above 50 nM.

`C=CC(=O)Nc1cccc(Oc2nc(Nc3ccc(NC4CCN(C)CC4)c(F)c3)nc3ccoc23)c1`: the GI50 is not above 50 nM. The value for `C=CC(=O)Nc1cccc(Oc2nc(Nc3ccc(N4CCN(CC)CC4)cc3OC)nc3ccsc23)c1` was not above 50 nM. The figure for `C=CC(=O)Nc1cccc(Oc2nc(Nc3ccc(N4CCN(C)CC4)cn3)nc3ccsc23)c1` is not above 50 nM.

For the compound `C=CC(=O)Nc1cccc(Oc2nc(Nc3ccc(N4CCN(C)CC4)nc3)nc3ccsc23)c1`, the 50% growth inhibitory concentration (GI50) was not above 50 nM. In turn, `C=CC(=O)Nc1cccc(Oc2nc(Nc3ccc(N4CC(C)N(C)C(C)C4)cc3)nc3ccsc23)c1` (stereo unspecified) returned a 50% growth inhibitory concentration (GI50) not above 50 nM. In turn, `C=CC(=O)Nc1cccc(Nc2nc(Nc3ccc(C4CCCN(C)C4)cc3)nc3ccsc23)c1` (stereo unspecified) had a 50% growth inhibitory concentration (GI50) not above 50 nM. The figure for `C=CC(=O)Nc1cccc(Oc2nc(Nc3ccc(N4CCC(N5CCCC5)CC4)c(F)c3)nc3ccsc23)c1` is not above 50 nM; for `C=CC(=O)Nc1cccc(Oc2nc(Nc3ccc(N4CCN(C)CC4)c(Cl)c3)nc3ccsc23)c1` it is not above 50 nM; for `C=CC(=O)Nc1cccc(Oc2nc(Nc3ccc(CC(=O)NC4CCN(C)CC4)cc3)nc3ccsc23)c1` it is not above 50 nM.

The values above are taken from the Kinase Knowledgebase extract (Sharma et al. 2016).
